Measured values as given in PMC8136953 (Veterinary Medicine and Science, 2020).
Where two headings read alike, the source gives them in different places.

Experiments:
[1] = Minimum plasma concentrations of FLO during multiple oral administrations; format: in vivo; details: European seabass (Dicentrarchus labrax), 10 mg/kg/day, multiple oral 10 mg/kg per day for seven consecutive days, 24°C, read-out: Minimum plasma concentrations at the 24 hr sampling intervals
Description: The extraction step was repeated twice.
(§1) The flow rate was 1.0 ml/min.
Results are presented as means ± SD (standard deviation of the mean). […] The SPSS version 25.0 (International Business Machines Corporation, Armonk, NY, USA) was used for the statistical analysis.

[2] = Residue depletion in muscle plus skin and withdrawal times after multiple oral dosing; format: in vivo, European seabass Dicentrarchus labrax; details: 10 mg kg^−1 day^−1 for 7 days, 24°C, mean ± SD
Description: Briefly, muscle plus skin samples were sheared, and subsequently 2 g of ground sample was weighed into a 50 ml centrifuge tube. Ten ml of ethyl acetate were added and the mixture was homogenized with an IKA Ultra‐Turrax T25 Disperser (IKA®‐Werke GmbH & Co. KG, Staufen, Germany) for 30 s at […]. The mixture was agitated for 20 min and then was centrifuged at 3,500 rpm/min for 10 min at 5°C. […] The combined extract was then evaporated to dryness at 45°C under nitrogen stream. Two milliliter of hexane and 1 ml of mobile phase solution were added in the residue. After gentle agitation for 5 min, the mixture was centrifuged (2,150 g for 5 min). The upper layer (hexane) was discarded and the de‐fatting step was repeated. The bottom layer (1 ml) was filtered (0.22 μm nylon filter) and then was subjected to HPLC analysis.
as §1
Withdrawal period was determined at the time when the upper one‐sided 95% tolerance limit for the residue was below the MRL with 95% confidence.

[3] = design: method as in Kosoff et al. (2009); details: 0‰, MO, 10 × 10d mg/kg fish, 49–52 g, 20–25 °C; ref Kosoff et al. (2009); cited from earlier work
[4] = 0‰, cited from earlier work
[5] = design: method as in Xie et al. (2013); details: 0‰, SO‐FA, 20 mg/kg fish, 71 g, 25 °C; ref Xie et al. (2013); cited from earlier work
[6] = design: method as in Yanong et al. (2005); details: 0‰, SO, 50 mg/kg fish, 144 g, 23–25 °C; ref Yanong et al. (2005); cited from earlier work
[7] = design: method as in Yanong et al. (2005); details: 0‰, SO, 50 mg/kg fish, 19 g, 23–25 °C; ref Yanong et al. (2005); cited from earlier work
[8] = 0‰, cited from earlier work; for WT: MO, 13 °C
[9] = 0‰, 25 °C, cited from earlier work
[10] = design: method as in Lim et al. (2010); details: ref Lim et al. (2010), cited from earlier work
[11] = design: method as in Kosoff et al. (2009); details: 26–30‰, MO, 10 × 10d mg/kg fish, 384–426 g, 20–25 °C; ref Kosoff et al. (2009); cited from earlier work
[12] = 28‰, MO, 10 × 10d mg/kg fish, 150 g, 27 °C; ref Di Salvo et al. (2013); cited from earlier work
[13] = 33‰, SO‐FA, cited from earlier work
[14] = design: method as in Table 4; details: after dietary delivery, different environmental conditions; ref Table 4; cited from earlier work
[15] = MO‐FA, 10 × 5d mg/kg fish, 330 g, 10 °C, ref Yang et al. (2020)
[16] = MO‐FA, 10 × 5d mg/kg fish, 330 g, 25 °C, ref Yang et al. (2020)
[17] = SO‐FA, 10 mg/kg fish, 260 g, 10 °C, ref Yang et al. (2019)
[18] = SO‐FA, 10 mg/kg fish, 260 g, 25 °C, ref Yang et al. (2019)
[19] = SO‐FA, 40 mg/kg fish, 260 g, 25 °C, ref Zhao et al. (2011)
[20] = SO, 10 mg/kg fish, 140 g, 14–15 °C, ref Pourmolaie et al. (2015)
[21] = MO‐FA, 10 × 10d mg/kg fish, 612 g, ref Gaunt et al. (2013)
[22] = SO‐FA, 10 mg/kg fish, ref Gaunt et al. (2012)
[23] = 33‰, MO, 20 × 3d mg/kg fish, 380 g, 19 °C
[24] = 24 mg/kg fish, 125 g, 23 °C, ref Feng et al. (2016)
[25] = 5–10 mg/kg fish, 103–301 g, 29 °C, ref Feng et al. (2018)

## CS(=O)(=O)c1ccc([C@@H](O)[C@@H](CF)NC(=O)C(Cl)Cl)cc1 [FLO, florfenicol]
[1]
  concentration at 24 hr: 220 to 550 ng/mL
[2]; 144 hours after last dosing
  Muscle plus skin FLO concentration: below LOQ
[2]; European seabass (Dicentrarchus labrax), in vivo, 24 hours after last dosing
  concentration at 24 hours after last dosing: 800 ± 1740 ng/g
[2]; European seabass (Dicentrarchus labrax), in vivo, 48 hours after last dosing
  concentration at 48 hours after last dosing: 250 ± 640 ng/g
[2]; European seabass (Dicentrarchus labrax), in vivo, 72 hours after last dosing
  concentration at 72 hours after last dosing: 40 ± 20 ng/g
[2]; European seabass (Dicentrarchus labrax), in vivo, 96 hours after last dosing
  concentration at 96 hours after last dosing: 40 ± 10 ng/g
[2]; European seabass (Dicentrarchus labrax), in vivo, 144 hours after last dosing
  concentration at 144 hours after last dosing: 30 ± 10 ng/g
[3]
  C max: 9200 to 15100 ng/mL
  WT: 232 to 302 h
[4]; [15]
  C max: 4000 ng/mL
  t 1/2b: 19.9 h
[4]; [16]
  C max: 1700 ng/mL
  t 1/2b: 12.9 h
[4]; [17]
  C max: 2400 ng/mL
  T max: 2.8 h
  t 1/2b: 22.9 h
[4]; [18]
  C max: 3500 ng/mL
  T max: 3.7 h
  t 1/2b: 9.6 h
[4]; [19]
  C max: 29300 ng/mL
  T max: 1.6 h
  t 1/2b: 2.2 h
[5]
  C max: 8400 ng/mL
  T max: 5 h
  t 1/2b: 13.5 h
[6]
  C max: 12300 ng/mL
  T max: 3 h
[7]
  C max: 2600 ng/mL
  T max: 5 h
[8]; 10 × 10d mg/kg fish, 220 g, ref Di Salvo et al. (2013)
  WT: 108 h
[8]; 15–20 × 10d mg/kg fish, 126–617 g, ref Meinertz et al. (2014)
  WT: 360 h
[8]; [20]
  C max: 6100 ng/mL
  T max: 9 h
[9]; [21]
  C max: 9700 ng/mL
  T max: 8 h
[9]; [22]
  C max: 7600 ng/mL
  T max: 9 h
  t 1/2b: 9.1 h
[10]; [23]
  C max: 12200 ng/mL
  WT: 189 h
[10]; multiple oral 20 mg kg^−1 day^−1 for three consecutive days
  Tissue distribution: higher tissue concentrations of FLO in gills than in the other tested tissue samples
[11]
  C max: 1800 to 3500 ng/mL
  WT: 17 to 62 h
[12]
  WT: 95 h
[13]; [24]
  C max: 28000 ng/mL
  t 1/2b: 11.6 h
[13]; [25]
  C max: 6000 to 13000 ng/mL
  t 1/2b: 8.5 to 9.3 h
[14]
  Maximum plasma concentration in other farmed fish species: 1.8 to 55 µg/mL
